Laboratory results reported in patent US20220023232A1, “USE OF CANNABINOIDS IN THE TREATMENT OF EPILEPSY” (GW Research Limited, priority 2019, published 2022).

How the values were obtained:
[1] = test system: epilepsy associated with KCNT1 mutation (EIMFS); experiment: Expanded access case study of highly purified CBD in a child with KCNT1 mutation associated EIMFS; assay type: in vivo, human
Procedure: The child was […] when they were enrolled in an expanded access compassionate use program for CBD. The patient was diagnosed with Epilepsy of Infancy with Migrating Focal Seizures (EIMFS).
This subject was treated with a highly purified extract of cannabidiol (CBD) obtained from a cannabis plant. Seizure frequency and severity was documented in seizure diaries at baseline (4-week pre-treatment period) and over the treatment period. At each visit quality of life changes, including mood, behaviour, and cognitive function were recorded in addition to global impression of change using a numerical scale.
The patient first presented with seizures on the first day of life. They experienced on average 14 seizures per day. The types of seizure that occurred were motor arrest; asymmetric tonic; clonic extremity movements, irregular breathing and cyanosis.
The patient had tried and failed seven different anti-epileptic drugs and at the time of treatment and continued on the ketogenic diet however their seizures remained refractory.
Pharmaceutical-grade plant-derived CBD oral solution was gradually titrated by 2 to 5 mg/kg increments up to a maximum dose of 25 mg/kg/day.
Laboratory testing for hematologic, liver, kidney function and concomitant AED levels was performed at baseline, and after every 4 weeks of CBD therapy.
The patient was treated for over three years and remains on treatment currently.

[2] = Solubility of drug substance in water; assay type: physicochemical
Source text: Sesame oil was selected as an excipient to solubilize the drug substance.

[3] = test system: secondary generalized epilepsy; details: eight adult patients; cited from earlier work
seizures [4] = details: 200 mg/day, four adult patients; cited from earlier work
seizures [5] = details: 200 mg/day, twelve institutionalized adult patients, open label; cited from earlier work
seizures [6] = details: mice, after pro-convulsant drugs or an electric current; cited from earlier work
seizures [7] = details: rabbit, in vivo; cited from earlier work
[8] = one patient, oral CBD up to 25 mg/kg/day

Row | Compound | demeanour and developmental milestones (caregiver documented) ([1]; after 6 months of treatment) | reduction in overall seizure frequency ([1]; after 16 weeks of treatment, 25 mg/kg/day, one patient) [%] | side effects at maximum dose ([1]; after 16 weeks, 25 mg/kg/day) | side effect on titration ([1]; initial 12 week period, CBD titrated too quickly) | overall seizure frequency increase compared to baseline ([1]; initial 12 weeks of treatment, maximum dose of 25 mg/kg/day not reached, one patient) [%] | seizure severity ([1]; one patient) | reduction in Type C seizures (irregular breathing, cyanosis and clonic extremity movements) [1, 8] [%] | reduction in Type D seizures (most severe, asymmetric tonic seizures) [1, 8] [%] | solubility in water [2] | number of patients with marked reduction of seizures [3] | seizure freedom (seizures [4]) | control of seizures (seizures [5]) | prevention of seizures (seizures [6]) | effect on convulsions (seizures [7])
1 | C=C(C)[C@@H]1CCC(C)=C[C@H]1c1c(O)cc(CCCCC)cc1O [CBD, Cannabidiol] | more interactive and had attained new milestones including babbling, smiling, and fixing | 12 | without side effects | somnolence | 13 | clinically meaningful reduction in seizure severity | 93 | 48 | insoluble in water | 4 | two of the four patients became seizure free | ineffective | able to prevent seizures | –
2 | CCCCCc1cc(O)c2c(c1)OC(C)(C)[C@@H]1CCC(C)=C[C@@H]21 [THC, Tetrahydrocannabinol] | – | – | – | – | – | – | – | – | – | – | – | – | – | pro-convulsant
